Where two headings read alike, the source gives them in different places.
Legend:
[1] = tested on: white blood cells (immune cells: neutrophils, monocytes, lymphocytes) versus erythrocytes; assay: Immune cell partition / concentrative uptake into white blood cells (immune selectivity ratio); assay type: in vitro ADME, mammalian
[2] = tested on: E. coli (DH5α); assay: Testing of antibiotic activity (TC50, antibiotic dilution assay, turbidity); assay type: cell-based; settings: concentration that inhibits 50% of the growth
Experimental: The TC50 or MIC procedure for antibiotic sensitivity testing involves an antibiotic dilution assay, which can be performed in microtitre plates. A series of twofold dilutions of each antibiotic are made in the wells, and then all wells are inoculated with a standard amount of the same test organism. After incubation, growth in the presence of the various antibiotics is observed by measuring turbidity.
Bacteria: B. pumilus and E. coli (DH5α)
Bacterial cultures are initiated from the plates for 2 to 3 weeks. After this time period bacteria are streaked out on new plates from the backups strored at −80° C. Due to the lack of resistance of the bacteria, new cultures are not to be initiated from an old plate or any liquid cultures derived from old plates. • Growth medium (GM)(per liter): 10 g Bacto-tryptone, 5 g Bacto-yeast extract, 6 g HEPES (25 mM), 5.4 g NaCl, pH 7.3 • Compound stocks 10 or 100 mM in DMSO stored at −20° C. Procedure • 1. Grow B. pumilus from an LB agar plate in a flask (max. 10% volume) up to about 50 ml in growth medium (GM) • 2. Dilute overnight suspension 1:10 in GM • 3. Determine OD600 of diluted bacterial suspension • 4. Dilute bacterial suspension in GM to an OD600 of 0.03-0.04. (6 ml/plate) • 5. Add 200 μl GM to the outer wells (Row A, Row H, Column 1, Column 12) • 6. Add 100 μl GM to each well starting from C2, row 3. • 7. Controls: Wells B2-B4 growth control. Wells B6-B8 blank. Row C growth inhibition control. • 7.1. To wells B2-B4 add: […], 4 μl DMSO, and 100 μl bacterial suspension adjusted to an OD600 of 0.03-0.04. • 7.2. To wells B6-B8 add: 196 μl GM and 4 μl DMSO • 7.3. Dilute a 10 mM COMPOUND 43 (positive control) stock to 800 μM (120 μl/plate) in GM. Add 100 μl of 800 μM COMPOUND 43 solution to well C2. • 8. Samples • 8.1. Dilute the 10 or 100 mM stock solutions to 800 μM (250 μl/plate) in GM. • 8.2. Add 100 μl of 800 μM sample in duplicates to wells D2/E2 resp. F2/G2. • 8.3. 2-fold serial dilution of all samples and Azithromycin • 8.3.1. […]
11. Determine OD600 on plate reader.

[3] = tested on: lymphocytes; assay: Proliferation assay (BrdU incorporation, phytohemagglutanin-stimulated lymphocytes); assay type: cell-based, mammalian; settings: for IC50: Lymphocyte; for Ratio (2 h:72 h): ratio of IC50 at 2 h to IC50 at 72 h, lower = better uptake and drug release
Excerpt: Assay to determine the in vitro rate of, for example, lymphocyte proliferation. Lymphocytes are purified out of ant coagulated (CPDA, citrate or heparin) mammalian blood using the Lymphoprep™ system (supplier). Purified cells are counted using a hemocytometer following Trypan Blue staining, and a cell concentration of 1×10^6 cells/ml established in RPMi 1640 medium with 10% FCS and antibiotics as required (all from Biochrome). Following the addition of a cell proliferation stimulant, for example phytohemagglutanin (Sigma) at, for example an end concentration of 5 μg/ml, the cells are incubated with different concentrations of the to be investigated compound in 100 μl end volume in a 96-well microtiter plate in an incubator (37° C., 5% CO2, 95% humidity) for 72 h. Cell proliferation is quantified following BrdU incorporation for 16 h by ELISA and subsequent colorimetric development (Cell Proliferation ELISA BrdU (colorimetric) kit from Roche Diagnostics). The IC50 (μM) values are then calculated, and used to compare compound efficacy. To determine the influence of the T-L-C modification on in vitro cellular drug uptake and pharmacology, the above assay is additionally modified and an additional “wash” step included. In addition to running the assay for 72 h with the compounds to be tested, the assay is also run for just 2 h, then compound is washed away in three serial washing steps using 200 μl of medium at each step, and the cells subsequently incubated for a further 70 h. […] The lower the number, the better the uptake and drug release from the T-L-C in the cells (see results in Table 4 for examples), and improvement over mycophenolic acid.

[4] = tested on: HeLa or JURKAT; assay: Cytotoxicity assay (Alamar Blue) with guanosine rescue, cell-based IMPDH assay
Experimental: HeLa cells (DSMZ, ACC 57) and Jurkat cells (DSMZ, ACC 282) in exponential growth phase are exposed for 3 days to test compounds. The number of surviving cells is then determined by the Alamar Blue assay (Serotec Inc.). This assay incorporates a fluorometric growth indicator based on detection of metabolic activity. Specifically, the system incorporates an oxidation-reduction indicator that fluoresces in response to chemical reduction of the growth medium resulting from cell growth. As cells grow in culture, innate metabolic activity results in a chemical reduction of the immediate surrounding environment. Continued growth maintains a reduced environment while inhibition of growth maintains an oxidized environment. […] Fluorescence is monitored at 560 nm (Exc.) and 590 nm Em.
HeLa cells (1×10^3) or JURKAT cells (1×10^3) are plated in 100 μl MEM medium (with Earle's salt; Biochrom KG) containing 10% FBS, 2 mM L-glutamine, and non-essential animo acids in 96-well plates and incubated at 37° C. and 5% CO2 atmosphere. […] The fluorescence is then measured as described above and the LD50 is determined based on a sigmoidal dose response regression. […] Any toxicity still detected can then be ascribed either to other biological effects of the of T-L-C conjugate of mycophenolic acid, or is due to the very high intracellular concentration of mycophenolic acid, following concentrative uptake into the cell.

[5] = read-out: IC50 (μM) at 2 h, 2 h incubation, compound washed away, further 70 h incubation
[6] = 72 h incubation with compound, read-out: IC50 (μM) at 72 h

CC[C@H]1OC(=O)[C@H](C)[C@@H](OC2C[C@@](C)(OC)[C@@H](O)[C@H](C)O2)[C@H](C)[C@@H](OC2O[C@H](C)C[C@H](N(C)C)[C@H]2O)[C@](C)(O)C[C@@H](C)/C(=N/OCc2cc(=O)oc3cc(OC)c(OC)cc23)[C@H](C)[C@@H](O)[C@]1(C)O (stereo partly shown) [Compound 3]
intracellular distribution ([1]; polymorphonuclear cells, fluorescent image (FIG. 3)): even distribution with some concentration near the nucleus

COc1cc(C)c(/C(=C\C(C)=O)CC(N)C(=O)O)cc1OC (stereo not shown) [Compound 4]
uptake (speed) ([1]; uptake into immune cells, images during course of uptake): rapid

CC[C@H]1OC(=O)[C@H](C)C(=O)[C@H](C)[C@@H](O[C@@H]2O[C@H](C)CC(N(C)C)[C@H]2O)[C@](C)(O)C[C@@H](C)CN(C)[C@H](C)[C@@H](O)[C@]1(C)O (stereo partly shown) [Compound 40]
TC50 in E. coli [2]: >50000 nM

CC[C@H]1OC(=O)[C@H](C)[C@@H](O[C@H]2C[C@@](C)(OC)[C@@H](O)[C@H](C)O2)[C@H](C)[C@@H](O[C@@H]2O[C@H](C)C[C@H](N(C)C)[C@H]2O)[C@](C)(O)C[C@@H](C)CN(C)[C@H](C)[C@@H](O)[C@]1(C)O [Compound 43, 9a-aza-9a-methyl-9-deoxo-9a-homoerythromycin A, reference compound]
TC50 in E. coli [2]: 2300 nM

CC[C@H]1OC(=O)[C@H](C)[C@@H](O[C@H]2C[C@@](C)(OC)[C@@H](O)[C@H](C)O2)[C@H](C)[C@@H](O[C@@H]2O[C@H](C)CC(N(C)C(=O)CN(C)CCO)[C@H]2O)[C@](C)(O)C[C@@H](C)CN(C)[C@H](C)[C@@H](O)[C@]1(C)O (stereo partly shown) [Compound 45]
TC50 in E. coli [2]: >50000 nM

CCOC(=O)CC/C(C)=C/Cc1c(OC)c(C)c2c(c1OC(=O)CCC(=O)O[C@@H]1C(N(C)C)C[C@@H](C)O[C@H]1O[C@@H]1[C@@H](C)[C@H](O[C@H]3C[C@@](C)(OC)[C@@H](O)[C@H](C)O3)[C@@H](C)C(=O)O[C@H](CC)[C@@](C)(O)[C@H](O)[C@@H](C)N(C)C[C@H](C)C[C@@]1(C)O)C(=O)OC2 (stereo partly shown) [Compound 69]
IC50 [3, 5]: 2.66 µM | IC50 [3, 6]: 1.4 µM | Ratio (2 h:72 h) [3]: 1.9

CC[C@H]1OC(=O)[C@H](C)[C@@H](O)[C@H](C)[C@@H](O[C@@H]2O[C@H](C)C[C@@H](N(C)CCOC(=O)CC/C(C)=C/Cc3c(O)c4c(c(C)c3OC)COC4=O)[C@@H]2N(C)C)[C@](C)(O)C[C@@H](C)CN(C)[C@H](C)[C@@H](O)[C@]1(C)O [Compound 74]
IC50 [3, 5]: 3.2 µM | IC50 [3, 6]: 2.2 µM | Ratio (2 h:72 h) [3]: 1.45

CC[C@H]1OC(=O)[C@H](C)C(=O)[C@H](C)[C@@H](O[C@@H]2O[C@H](C)C[C@H](N(C)C)[C@H]2OC(=O)CC/C(C)=C/Cc2c(O)c3c(c(C)c2OC)COC3=O)[C@](C)(O)C[C@@H](C)CN(C)[C@H](C)[C@@H](O)[C@]1(C)O [Compound 79]
IC50 [3, 5]: 3.16 µM | IC50 [3, 6]: 1.2 µM | Ratio (2 h:72 h) [3]: 2.63

CC[C@H]1OC(=O)[C@H](C)[C@@H](O[C@H]2C[C@@](C)(OC)[C@@H](O)[C@H](C)O2)[C@H](C)[C@@H](O[C@@H]2O[C@H](C)C[C@@H](OC(=O)CC/C(C)=C/Cc3c(O)c4c(c(C)c3OC)COC4=O)[C@@H]2N2CCOCC2)[C@](C)(O)C[C@@H](C)CN(C)[C@H](C)[C@@H](O)[C@]1(C)O [Compound 80]
IC50 [3, 5]: 1.41 µM | IC50 [3, 6]: 0.4 µM | Ratio (2 h:72 h) [3]: 3.53

COc1c(C)c2c(c(O)c1C/C=C(\C)CCC(=O)OC(COCCCCOCC(CN1CCOCC1)OC(=O)CC/C(C)=C/Cc1c(O)c3c(c(C)c1OC)COC3=O)CN1CCOCC1)C(=O)OC2 (stereo not shown) [Compound 81]
IC50 [3, 5]: 1.78 µM | IC50 [3, 6]: 1.12 µM | Ratio (2 h:72 h) [3]: 1.6

COc1c(C)c2c(c(O)c1C/C=C(\C)CCC(=O)OCCN1CCOCC1)C(=O)OC2 [Mycophenolate mofetil, reference compound]
IC50 [3, 5]: 1.5 µM | IC50 [3, 6]: 0.33 µM | Ratio (2 h:72 h) [3]: 4.5

COc1c(C)c2c(c(O)c1C/C=C(\C)CCC(=O)O)C(=O)OC2 [Mycophenolic acid, reference compound]
IC50 [3, 5]: 2.5 µM | IC50 [3, 6]: 0.54 µM | Ratio (2 h:72 h) [3]: 4.63 | effect in the presence of guanosine ([4]; 50 μM guanosine): completely removed | IC50 ([4]; normal culture conditions, HeLa or JURKAT): < 2000 nM

Reference: patent US20050171342A1, “Conjugates of biologically active compounds, methods for their preparation and use, formulation and pharmaceutical applications thereof” (priority 2002, published 2005)
